Laboratory results taken from US20160291027A1, “METHODS FOR […] ABILITY OF A Z[…] COMPOUND TO TREAT CANCER” (Eisai R&D Management Co., Ltd., priority 2007, published 2016).

Assays:
SF-295 = test: CellTiter-Glo cell growth assay; assay type: cell-based, human; settings: SF-295, BRAF wild-type glioblastoma, elevated pAKT; 10 μmol/L to 0.0003 μmol/L
Description: In order to determine whether Compound 106 resistance is associated with constitutive AKT phosphorylation as a result of activation of the PI3K signaling pathway, a panel of 10 BRAF mutated melanoma cell lines and a BRAF wild-type glioblastoma cancer cell line, SF-295, were tested using different concentrations of Compound 106 ranging from 10 μmol/L to 0.0003 μmol/L.
All assays were performed in a 96 well format. For these cell lines, protein lysates were collected in a separate experiment, which allowed for the evaluation of the constitutive level of AKT phosphorylation and correlation between the level of phosphorylated AKT (pAKT) and Compound 106 sensitivity. Cell growth was assessed using CellTiter-Glo® Luminescent Cell Viability Assay (Promega). Phosphorylated AKT protein was analyzed by Western blotting, with total AKT being used as a loading control.

[1] = system: wildtype xenograft models (pancreatic cell lines); test: Other xenograft models, wildtype; assay type: in vivo, mice; settings: 40 mg/kg i.v. QD×5 for 2 weeks
Description: Additionally, one, five, and seven out of eight animals in the groups treated with Compound 106 at doses of 10, 20, or 40 mg/kg, respectively, were tumor-free at the end of the study on day 59. […] Compound 106 was also tested in other xenograft models, in which BRAF-mutated cells, including breast, colon, and melanoma cell lines, or wildtype cells, including pancreatic cell lines, were transplanted subcutaneously into female nude mice. Compound 106 or a vehicle control was administered intravenously.

[2] = system: IL-8 secretion by LOX human melanoma cells; test: IL-8 secretion by LOX melanoma cells (ELISA); assay type: cell-based; settings: 24 hours
Description: Compound 106 (5.0 mg) was weighed and dissolved in 100% anhydrous DMSO (dimethyl sulfoxide, Sigma-Aldrich®, St. Louis, Mo.) to produce a 10 mmol/L stock solution of 3.89 mg/mL. Aliquots of the 10 mmol/L stock solution were stored at −80° C. Then, on each day of an experiment, an aliquot of the stock solution was thawed and diluted 1:10 by adding RPMI-1640 culture medium to obtain a 1 mmol/L solution. Four serial 1:10 dilutions were made from 1 mmol/L working solution by adding 10% DMSO in RPMI-1640 culture medium to obtain 4 additional working solutions. Each of these working stock solutions was further diluted with culture media to obtain diluted working solutions ranging from 1 nmol/L to 10,000 nmol/L. Five mL of each of these diluted working solutions was added to each dish.
LOX human melanoma cells were originally obtained from the DCTD Tumor Repository (Frederick, Md.). The cells were grown in monolayer cultures in RPMI-1640 growth media containing 10% fetal bovine serum (FBS) at 37° C. in a 5% CO2 humidified incubator.
LOX human melanoma cells were plated at 1×10^6 cells into 100 mm dishes. After 48 hours, cells were washed three times with phosphate buffered saline (PBS) and were cultured with RPMI-1640 medium containing 0.1% FBS for another 24 hours. After removing the cell culture medium, fresh RPMI-1640 medium containing Compound 106 (1, 10, 100, 1000, or 10,000 nmol/L) was added to each culture dish and incubated for 24 hours (see Table 5). The control received 0.1% DMSO in RPMI-1640 culture medium alone to measure spontaneous secretion of IL-6 and IL-8. Three separate experiments were performed in duplicate to calculate the mean±SEM.
After a 24 hour incubation with Compound 106 or 0.1% DMSO, 5 mL of cell culture supernatant was collected. Any particulate material was removed by centrifugation. All samples were stored in the −80° C. freezer until analysis. Human IL-6 or IL-8 was determined using an ELISA kit (Human IL-8 ELISA Set, Catalog No. 555244, BD Biosciences, San Diego, Calif. and Human IL-6 ELISA Set, Catalog No. 555220, BD Biosciences, San Diego, Calif.) with the assay procedure provided by the kits. Absorbance was read on a VERSAMAX™ (Molecular Devices, now part of MDS Analytical Technologies, Sunnyvale Calif.).
After removing the cell culture supernatant, 1.0 mL of trypsin was added to the cells for 3 minutes, and then 4 mL of media containing 10% FBS was added for cell counting. Cells were counted using a hematocytometer (Bright Line Counting Chamber, Hausser Scientific, Horsham, Pa.) with a depth of 0.1 mm. The total number of cells was calculated as follows:
Total number of cells in 5 mL=C×10^4/mL×5 mL(C: actual cell count in 1 mm^2)
The level of IL-6 or IL-8 was determined as ng/1×10^6 cells. Inhibition of IL-6 or IL-8 secretion by Compound 106 was expressed as percent of control using the formula below:
Percent of control=(value of treatment−mean value of blank)/(value of control−mean value of blank)×100
The software, Graphpad Prism® (ver. 4, San Diego, Calif.) was used for calculation of mean IC50 values.

CCNc1cc(O)c2c(c1)/C=C/C[C@H](O)[C@H](O)C(=O)/C=C\[C@@H](C)[C@H](C)OC2=O [Compound 106]
Sensitivity of cell line (SF-295): resistant
tumor regression [1]: 30-40%
IL-8 (ng/million cells) Mean ([2]; 1 nmol/L): 128.8 ng/million cells
IL-8 (pg/million cells) Experiment 1 ([2]; 1 nmol/L): 112318 pg/million cells
IL-8 (pg/million cells) Experiment 2 ([2]; 1 nmol/L): 213228 pg/million cells
IL-8 (pg/million cells) Experiment 3 ([2]; 1 nmol/L): 60753 pg/million cells
Protein level of IL-8, Percent (%) of control Experiment 1 ([2]; 1 nmol/L): 106.9%
Protein level of IL-8, Percent (%) of control Experiment 2 ([2]; 1 nmol/L): 123.9%
Protein level of IL-8, Percent (%) of control Experiment 3 ([2]; 1 nmol/L): 163.4%
IL-8 (ng/million cells) Mean ([2]; 10 nmol/L): 60.2 ng/million cells
IL-8 (pg/million cells) Experiment 1 ([2]; 10 nmol/L): 47049 pg/million cells
IL-8 (pg/million cells) Experiment 2 ([2]; 10 nmol/L): 90632 pg/million cells
IL-8 (pg/million cells) Experiment 3 ([2]; 10 nmol/L): 42942 pg/million cells
Protein level of IL-8, Percent (%) of control Experiment 1 ([2]; 10 nmol/L): 44.8%
Protein level of IL-8, Percent (%) of control Experiment 2 ([2]; 10 nmol/L): 52.7%
Protein level of IL-8, Percent (%) of control Experiment 3 ([2]; 10 nmol/L): 115.5%
IL-8 (ng/million cells) Mean ([2]; 100 nmol/L): 3.1 ng/million cells
IL-8 (pg/million cells) Experiment 1 ([2]; 100 nmol/L): 3079 pg/million cells
IL-8 (pg/million cells) Experiment 2 ([2]; 100 nmol/L): 3249 pg/million cells
IL-8 (pg/million cells) Experiment 3 ([2]; 100 nmol/L): 3101 pg/million cells
Protein level of IL-8, Percent (%) of control Experiment 1 ([2]; 100 nmol/L): 2.9%
Protein level of IL-8, Percent (%) of control Experiment 2 ([2]; 100 nmol/L): 1.9%
Protein level of IL-8, Percent (%) of control Experiment 3 ([2]; 100 nmol/L): 8.3%
IL-8 (ng/million cells) Mean ([2]; 1,000 nmol/L): 2.4 ng/million cells
IL-8 (pg/million cells) Experiment 1 ([2]; 1,000 nmol/L): 3390 pg/million cells
IL-8 (pg/million cells) Experiment 2 ([2]; 1,000 nmol/L): 2273 pg/million cells
IL-8 (pg/million cells) Experiment 3 ([2]; 1,000 nmol/L): 1494 pg/million cells
Protein level of IL-8, Percent (%) of control Experiment 1 ([2]; 1,000 nmol/L): 3.2%
Protein level of IL-8, Percent (%) of control Experiment 2 ([2]; 1,000 nmol/L): 1.3%
Protein level of IL-8, Percent (%) of control Experiment 3 ([2]; 1,000 nmol/L): 4.0%
IL-8 (ng/million cells) Mean ([2]; 10,000 nmol/L): 2.9 ng/million cells
IL-8 (pg/million cells) Experiment 1 ([2]; 10,000 nmol/L): 5179 pg/million cells
IL-8 (pg/million cells) Experiment 2 ([2]; 10,000 nmol/L): 1384 pg/million cells
IL-8 (pg/million cells) Experiment 3 ([2]; 10,000 nmol/L): 2179 pg/million cells
Protein level of IL-8, Percent (%) of control Experiment 1 ([2]; 10,000 nmol/L): 4.9%
Protein level of IL-8, Percent (%) of control Experiment 2 ([2]; 10,000 nmol/L): 0.8%
Protein level of IL-8, Percent (%) of control Experiment 3 ([2]; 10,000 nmol/L): 5.9%
activity at 0.001 µM ([2]; Homo sapiens, LOX, 1 nmol/L, read-out: Protein level of IL-8, Mean % of control): 131%
activity at 0.01 µM ([2]; Homo sapiens, LOX, 10 nmol/L, read-out: Protein level of IL-8, Mean % of control): 71%
activity at 0.1 µM ([2]; Homo sapiens, LOX, 100 nmol/L, read-out: Protein level of IL-8, Mean % of control): 4.4%
activity at 1 µM ([2]; Homo sapiens, LOX, 1,000 nmol/L, read-out: Protein level of IL-8, Mean % of control): 2.9%
activity at 10 µM ([2]; Homo sapiens, LOX, 10,000 nmol/L, read-out: Protein level of IL-8, Mean % of control): 3.9%
IC50 ([2]; Homo sapiens, LOX melanoma cell line, read-out: mean calculated IC50, IL-8 protein level): 10.5 nM
